Assay [1] deals with T1, TRAF2 and NCK-interacting protein kinase (Homo sapiens, UniProt Q9UKE5). Nature of the assay: Inhibition of TNIK (unknown origin).
Target sequence in this assay (Q9UKE5 whole entry): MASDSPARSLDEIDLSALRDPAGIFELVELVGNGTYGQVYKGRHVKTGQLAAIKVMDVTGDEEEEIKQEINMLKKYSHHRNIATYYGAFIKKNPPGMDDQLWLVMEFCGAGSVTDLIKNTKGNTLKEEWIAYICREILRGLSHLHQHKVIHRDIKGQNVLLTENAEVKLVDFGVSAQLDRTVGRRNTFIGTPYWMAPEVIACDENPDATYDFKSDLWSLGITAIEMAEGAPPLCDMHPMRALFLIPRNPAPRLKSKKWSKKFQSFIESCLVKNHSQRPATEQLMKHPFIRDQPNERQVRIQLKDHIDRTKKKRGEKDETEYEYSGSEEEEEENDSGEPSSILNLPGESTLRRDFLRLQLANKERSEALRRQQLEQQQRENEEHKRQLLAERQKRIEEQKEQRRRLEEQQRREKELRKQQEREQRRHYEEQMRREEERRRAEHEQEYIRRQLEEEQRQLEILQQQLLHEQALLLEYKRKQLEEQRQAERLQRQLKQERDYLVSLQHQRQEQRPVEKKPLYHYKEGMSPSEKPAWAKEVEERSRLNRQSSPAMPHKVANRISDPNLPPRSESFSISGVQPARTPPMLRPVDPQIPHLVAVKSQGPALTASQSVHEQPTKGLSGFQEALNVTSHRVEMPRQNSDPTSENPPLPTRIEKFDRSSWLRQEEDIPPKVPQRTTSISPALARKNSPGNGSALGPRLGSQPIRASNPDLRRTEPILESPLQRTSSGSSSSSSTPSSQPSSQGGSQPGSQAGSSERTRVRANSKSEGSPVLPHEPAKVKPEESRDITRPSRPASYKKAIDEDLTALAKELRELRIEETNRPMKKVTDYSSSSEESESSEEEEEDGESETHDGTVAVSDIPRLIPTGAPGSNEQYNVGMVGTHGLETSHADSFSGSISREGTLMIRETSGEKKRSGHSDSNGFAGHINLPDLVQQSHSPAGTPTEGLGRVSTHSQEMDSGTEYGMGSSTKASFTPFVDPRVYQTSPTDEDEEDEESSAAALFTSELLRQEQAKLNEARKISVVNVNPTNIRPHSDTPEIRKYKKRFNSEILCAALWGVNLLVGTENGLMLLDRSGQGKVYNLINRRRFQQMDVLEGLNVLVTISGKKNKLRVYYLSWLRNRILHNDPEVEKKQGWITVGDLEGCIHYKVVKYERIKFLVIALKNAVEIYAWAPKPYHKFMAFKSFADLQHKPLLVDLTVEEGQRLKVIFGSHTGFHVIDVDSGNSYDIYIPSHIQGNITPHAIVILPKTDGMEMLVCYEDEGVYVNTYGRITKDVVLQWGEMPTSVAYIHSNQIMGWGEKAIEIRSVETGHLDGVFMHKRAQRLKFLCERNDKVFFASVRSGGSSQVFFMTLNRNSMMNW
Assay [2] concerns the target T1, TRAF2 and NCK-interacting protein kinase. Nature of the assay: Inhibition of TNIK in human Jurkat cells assessed as reduction in PMA/anti-CD3 antibody-induced IL2 level incubated for 24 hrs by ELISA. Type of assay: cell-based. Particulars: dose 1-10 µM.
Target sequence in this assay (Q9UKE5 whole entry, looked up): as the sequence (Q9UKE5 whole entry) above
For assay [3] the target is unchanged. Nature of the assay: Inhibition of TNIK in PMA/anti-CD3 antibody-stimulated human Jurkat cells assessed as IL2 level at 10 uM incubated for 24 hrs by ELISA. Format: cell-based. In general terms: ELISA stands for enzyme-linked immunosorbent assay.
Target sequence in this assay (Q9UKE5 whole entry, looked up): as the sequence (Q9UKE5 whole entry) above
Assay [4] shares this target. Nature of the assay: Inhibition of TNIK in human Jurkat cells assessed as reduction in PMA/anti-CD3 antibody-induced IL2 secretion at 1 uM incubated for 24 hrs by ELISA. Type of assay: cell-based.
Target sequence in this assay (Q9UKE5 whole entry, looked up): as the sequence (Q9UKE5 whole entry) above

For 32 compounds, IC50, inhibition and Activity results are on record in ChEMBL document CHEMBL4673375, “Discovery of a series of 1H-pyrrolo[2,3-b]pyridine compounds as potent TNIK inhibitors” (Bioorg Med Chem Lett, 2021).

One may read the IC50 as the concentration that inhibits the measured activity by half. A low value points to inhibition by little substance.

The source made the active and inactive calls. The calls are words filed in the database; no cut-off is given here.

As to `CN(C)C1CCN(C(=O)c2cccc(-c3cnc4[nH]cc(-c5cc(C#N)cc(NS(C)(=O)=O)c5)c4c3)c2)C1` (stereo not drawn), the IC50 in assay [1] was 0.22 nM. With `CN1CCN(Cc2ccc(-c3cnc4[nH]cc(-c5cccc6ccccc56)c4c3)cc2)CC1`, in assay [1], half-maximal inhibition (IC50) was put at 31 nM. Regarding `CN1CCN(Cc2ccc(-c3cnc4[nH]cc(-c5cccc(C(=O)N(C)C)c5)c4c3)cc2)CC1`, in assay [1], the IC50 was determined as 43 nM. `CN1CCN(Cc2ccc(-c3cnc4[nH]cc(-c5cccc(N)c5)c4c3)cc2)CC1` displayed an IC50 in assay [1] of 15 nM. In the case of `CN1CCN(Cc2ccc(-c3cnc4[nH]cc(-c5ccc(NS(C)(=O)=O)cc5)c4c3)cc2)CC1`, in assay [1], the IC50 was determined as 18 nM. As for `CN1CCN(Cc2ccc(-c3cnc4[nH]cc(-c5ccc(F)cc5)c4c3)cc2)CC1`, the IC50 in assay [1] came to 19 nM. In turn, `c1ccc(-c2cnc3[nH]cc(-c4ccccc4)c3c2)cc1` had an IC50 in assay [1] of 9.2 nM. On the same count and under the same terms, the value for `CN1CCN(Cc2ccc(-c3cnc4[nH]cc(-c5cccc(NS(C)(=O)=O)c5)c4c3)cc2)CC1` was 7.1 nM; that for `CS(=O)(=O)Nc1cc(C#N)cc(-c2c[nH]c3ncc(-c4cccc(C(=O)N5CCCC5)c4)cc23)c1` was 0.21 nM; that for `CC(=O)Nc1cccc(-c2c[nH]c3ncc(-c4ccc(CN5CCN(C)CC5)cc4)cc23)c1` was 12 nM. For the compound `CC(C)(C(=O)O)c1ccc(-c2cnc3[nH]cc(-c4cc(C#N)cc(NS(C)(=O)=O)c4)c3c2)cc1`, in assay [2], the inhibition result is “Dose-dependent effect”. This compound had an IC50 in assay [1] of 0.47 nM.

The compound `Cn1cc(-c2ccc(-c3cnc4[nH]cc(-c5cc(C#N)cc(NS(C)(=O)=O)c5)c4c3)cc2)cn1` returned an IC50 in assay [1] of 0.8 nM. On to `CN1CCN(Cc2ccc(-c3cnc4[nH]cc(-c5ccc6[nH]ncc6c5)c4c3)cc2)CC1`, for which the midpoint of inhibition in assay [1], the IC50, lay at 0.44 nM. With `CN1CCN(Cc2ccc(-c3cnc4[nH]cc(-c5cc(C#N)c6[nH]ncc6c5)c4c3)cc2)CC1`, in assay [3], the Activity was less than 25 pg/mL. Besides, in assay [4], the inhibition entry is “inactive”. Also, the IC50 in assay [1] worked out at 0.23 nM.

`CC(C)(Oc1ccc(-c2cnc3[nH]cc(-c4cc(C#N)cc(NS(C)(=O)=O)c4)c3c2)cc1)C(=O)O`: in assay [2], the inhibition entry was “Dose-dependent effect”. Besides, the IC50 in assay [1] was 0.33 nM. Turning to `CN1CCN(Cc2ccc(-c3cnc4[nH]cc(-c5ccc6[nH]ccc6c5)c4c3)cc2)CC1`, in assay [1], the IC50 was 5.2 nM. `CS(=O)(=O)Nc1cc(C#N)cc(-c2c[nH]c3ncc(-c4cccc(C(=O)NC5CC5)c4)cc23)c1`: the IC50 in assay [1] is 0.12 nM. In the case of `CN1CCN(Cc2ccc(-c3cnc4[nH]cc(-c5cc(C#N)cc(NS(C)(=O)=O)c5)c4c3)cc2)CC1`, in assay [2], the inhibition result was “Dose-dependent effect”. Besides, the Activity in assay [3] is less than 25 pg/mL. This compound registered an IC50 in assay [1] of 0.13 nM. Consider `CN1CCN(Cc2ccc(-c3cnc4[nH]cc(-c5cc(C#N)c(Cl)c(NS(C)(=O)=O)c5)c4c3)cc2)CC1`, for which the inhibition result in assay [2] was “Dose-dependent effect”. It took 0.43 nM to reach half-maximal inhibition in assay [1] (IC50). For the compound `CN1CCC(n2cc(-c3cnc4[nH]cc(-c5cc(C#N)c(Cl)c(NS(C)(=O)=O)c5)c4c3)cn2)CC1`, in assay [2], the inhibition result was “Dose-dependent effect”. Further, in assay [3], the Activity was less than 25 pg/mL. The IC50 in assay [1] came out at 0.68 nM.

For `CNC(=O)c1cccc(-c2c[nH]c3ncc(-c4ccc(CN5CCN(C)CC5)cc4)cc23)c1`, inhibition in assay [1] was half-maximal at 27 nM (IC50). Take `CN1CCN(Cc2ccc(-c3cnc4[nH]cc(-c5ccc(Cl)cc5)c4c3)cc2)CC1`: in assay [1], the IC50 is 14 nM. With `CNC(=O)c1cccc(-c2cnc3[nH]cc(-c4cc(C#N)cc(NS(C)(=O)=O)c4)c3c2)c1`, the IC50 in assay [1] came out at 0.18 nM. Still for that read-out and setting: the value for `CN1CCN(C(=O)c2ccc(-c3cnc4[nH]cc(-c5cc(C#N)cc(NS(C)(=O)=O)c5)c4c3)cc2)CC1` was 0.21 nM; that for `CN1CCN(Cc2ccc(-c3cnc4[nH]cc(-c5ccc6[nH]cnc6c5)c4c3)cc2)CC1` was 3.8 nM.

In assay [1], `CN1CCN(Cc2ccc(-c3cnc4[nH]cc(-c5ccccc5)c4c3)cc2)CC1` gave an IC50 of 14 nM. In the case of `CN1CCN(Cc2ccc(-c3cnc4[nH]cc(-c5cccc(C#N)c5)c4c3)cc2)CC1`, the IC50 in assay [1] is 0.91 nM. Compound `CN1CCN(C(=O)c2cccc(-c3cnc4[nH]cc(-c5cc(C#N)cc(NS(C)(=O)=O)c5)c4c3)c2)CC1` yielded an IC50 in assay [1] of 0.25 nM. On to `CN1CCN(Cc2ccc(-c3cnc4[nH]cc(-c5cc(C#N)cc(NS(=O)(=O)C6CC6)c5)c4c3)cc2)CC1`, for which the inhibition entry in assay [2] is “Dose-dependent effect”. Moreover, the Activity in assay [3] is less than 25 pg/mL. Besides, it took 0.19 nM to reach half-maximal inhibition in assay [1] (IC50). `CN1CCN(Cc2ccc(-c3cnc4[nH]cc(-c5cnc6[nH]ncc6c5)c4c3)cc2)CC1`: it took 7.9 nM to reach half-maximal inhibition in assay [1] (IC50). Still for that read-out and setting: the value for `CNC(=O)c1cccc(-c2cnc3[nH]cc(-c4cc(C#N)c(Cl)c(NS(C)(=O)=O)c4)c3c2)c1` was 0.3 nM; that for `CS(=O)(=O)Nc1cc(C#N)cc(-c2c[nH]c3ncc(-c4cccc(C(=O)N5CCCCC5)c4)cc23)c1` was 0.22 nM.
